Assay results taken from ChEMBL document CHEMBL1201862, “PubChem BioAssay data set” (2004).
Calls of active or inactive are those of the source.

Assays:
HeLa = experiment: HeLa cell cytotoxicity, dose response, cytotoxicity control for MITF activator project, CellTiter-Glo luminescence, cherry-pick samples (AID 540259); assay type: functional, cell-based; settings: Homo sapiens
[1] = biological target: DNA dC->dU-editing enzyme APOBEC-3G (Homo sapiens, UniProt Q9HC16); experiment: APOBEC3G deaminase inhibitors, SAR follow-up, biochemical, fluorescence, single-stranded DNA substrate (AID 602136); assay type: functional; settings: read-out: IC50_Mean
[2] = biological target: DNA dC->dU-editing enzyme APOBEC-3A (Homo sapiens, UniProt P31941); experiment: SAR analysis of small molecule inhibitors of APOBEC3A DNA Deaminase via a fluorescence-based single-stranded DNA deaminase assay.; assay type: functional; settings: read-out: IC50_Mean
[3] = biological target: Mitochondrial peptide methionine sulfoxide reductase (Bos taurus, UniProt P54149); assay type: functional;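 further: absorbance read-out, biochemical high-throughput dose-response screen for MsrA inhibitors, confirmatory; recombinant bovine MsrA coupled to E. coli TrxB with NADPH and selenocystamine; potency is for inhibitors of MsrA activity on DMSO substrate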
H4 = experiment: Luminescence Cell-Based Dose Response HTS to Identify Activators of 5'UTR Stem-Loop Driven Prion Protein mRNA Translation in H4 Neuroglioblastoma Cells. [Related pubchem assays: 1829 (Project Summary), 1814 (Primary HTS)]; assay type: functional; settings: Homo sapiens
[4] = biological target: T1, Aryl hydrocarbon receptor (Homo sapiens, UniProt P35869); settings: Potency;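 further: confirmatory quantitative high-throughput screen measuring activation of the AhR signaling pathway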
T1 sequence (P35869 whole entry): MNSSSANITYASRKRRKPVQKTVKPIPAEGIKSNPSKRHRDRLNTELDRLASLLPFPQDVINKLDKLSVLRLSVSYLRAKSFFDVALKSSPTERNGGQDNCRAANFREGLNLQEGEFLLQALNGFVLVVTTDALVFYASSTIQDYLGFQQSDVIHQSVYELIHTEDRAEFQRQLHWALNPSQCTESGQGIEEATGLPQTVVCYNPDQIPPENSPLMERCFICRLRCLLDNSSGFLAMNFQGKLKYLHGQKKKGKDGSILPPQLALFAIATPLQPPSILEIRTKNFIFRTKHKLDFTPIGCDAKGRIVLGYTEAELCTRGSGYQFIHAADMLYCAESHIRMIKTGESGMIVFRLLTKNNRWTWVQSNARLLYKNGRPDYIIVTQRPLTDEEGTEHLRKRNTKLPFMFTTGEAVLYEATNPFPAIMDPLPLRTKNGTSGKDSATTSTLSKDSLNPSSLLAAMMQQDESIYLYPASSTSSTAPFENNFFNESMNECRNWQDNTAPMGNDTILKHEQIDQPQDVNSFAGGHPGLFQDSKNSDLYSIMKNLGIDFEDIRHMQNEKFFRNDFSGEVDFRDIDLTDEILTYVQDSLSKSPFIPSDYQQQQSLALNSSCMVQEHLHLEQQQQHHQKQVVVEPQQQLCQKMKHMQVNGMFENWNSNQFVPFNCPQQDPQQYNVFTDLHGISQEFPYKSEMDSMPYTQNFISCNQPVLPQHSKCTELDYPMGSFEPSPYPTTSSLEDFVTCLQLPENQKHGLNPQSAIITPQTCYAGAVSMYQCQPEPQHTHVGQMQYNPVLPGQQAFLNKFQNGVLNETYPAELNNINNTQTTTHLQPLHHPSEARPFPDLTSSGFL

Genome polyprotein = Genome polyprotein (dengue virus type 2, UniProt P29990); experiment: Dengue-2 NS5 methyltransferase inhibitors, primary screen, biochemical, confirmation dose response (AID 588689); assay type: functional
Vero = Vero cell cytotoxicity, cytotoxicity control for flavivirus capping enzyme inhibitors (AID 588742); assay type: functional; settings: Chlorocebus sabaeus
[5] = biological target: Photoreceptor-specific nuclear receptor (Homo sapiens, UniProt Q9Y5X4); assay type: functional, cell-based;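 further: CHO-S cells with Gal4-NCOR and VP16-NR2E3 two-hybrid luciferase reporter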
Streptococcus = experiment: Group A Streptococcus viability loss, dose response, counter-screen for streptokinase expression inhibitor project, luminescence, BacTiterGlo (AID 1915); assay type: functional, organism-based;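 further: potency for reduction of bacterial viability or growth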
Escherichia coli [6] = experiment: microbe, parasite or virus in culture
[7] = system: Streptococcus sp. 'group A'; experiment: growth inhibition of control SK(-) GAS strain, dose response, counter-screen for streptokinase expression inhibitor project, luminescence, kanamycin, BacTiterGlo, confirmation (AID 1900); assay type: functional, organism-based
Escherichia coli [8] = experiment: microbe, parasite or virus in culture; remark: listed apart in the source
Protein skinhead-1 = biological target: T2, Protein skinhead-1 (Caenorhabditis elegans, UniProt P34707); assay type: functional
T2 sequence (P34707 whole entry): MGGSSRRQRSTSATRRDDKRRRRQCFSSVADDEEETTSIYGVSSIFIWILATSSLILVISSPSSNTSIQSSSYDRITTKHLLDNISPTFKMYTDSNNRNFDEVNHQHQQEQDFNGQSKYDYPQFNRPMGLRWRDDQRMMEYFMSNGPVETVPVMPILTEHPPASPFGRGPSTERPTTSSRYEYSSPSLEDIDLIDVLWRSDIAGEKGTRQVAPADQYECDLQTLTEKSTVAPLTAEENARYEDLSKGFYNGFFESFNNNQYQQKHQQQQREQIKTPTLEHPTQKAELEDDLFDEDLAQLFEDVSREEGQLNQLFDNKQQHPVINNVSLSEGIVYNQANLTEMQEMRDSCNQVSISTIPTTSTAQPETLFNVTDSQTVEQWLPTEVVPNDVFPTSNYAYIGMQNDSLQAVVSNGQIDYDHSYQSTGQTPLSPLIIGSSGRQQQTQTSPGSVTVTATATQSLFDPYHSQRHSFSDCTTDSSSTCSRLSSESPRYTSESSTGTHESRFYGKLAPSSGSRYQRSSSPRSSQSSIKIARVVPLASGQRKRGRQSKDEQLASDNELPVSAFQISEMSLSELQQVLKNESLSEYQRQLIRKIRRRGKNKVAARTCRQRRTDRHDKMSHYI

[9] = biological target: 5-hydroxytryptamine receptor 5A (Homo sapiens, UniProt P47898); experiment: Counterscreen for agonists of OPRM1-OPRD1 heterodimerization: luminescence-based cell-based high throughput dose response assay to identify agonists of 5-hydroxytryptamine (serotonin) 5A receptor (HTR5A). [Related pubchem assays (depositor defined):AID504326, AID504355, AID504692, AID504904, AID504905]; assay type: functional
Chain of 5-hydroxytryptamine receptor 5A (P47898 whole entry): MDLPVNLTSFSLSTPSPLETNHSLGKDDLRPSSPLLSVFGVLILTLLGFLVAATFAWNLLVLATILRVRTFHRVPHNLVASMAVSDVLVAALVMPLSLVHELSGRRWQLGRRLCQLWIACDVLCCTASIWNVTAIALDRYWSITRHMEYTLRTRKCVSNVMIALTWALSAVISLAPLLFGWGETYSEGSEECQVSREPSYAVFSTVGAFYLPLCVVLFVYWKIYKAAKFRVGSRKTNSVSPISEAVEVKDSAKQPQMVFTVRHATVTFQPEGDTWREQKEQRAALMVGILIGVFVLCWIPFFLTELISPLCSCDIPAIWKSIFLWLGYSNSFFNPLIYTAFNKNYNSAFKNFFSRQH

[10] = biological target: Delta-type opioid receptor (Homo sapiens, UniProt P41143); experiment: Counterscreen for agonists of heterodimerization of the mu 1 (OPRM1) and delta 1 (OPRD1) opioid receptors: Luminescence-based cell-based high throughput dose response assay to identify agonists of OPRD1 homodimerization. [Related pubchem assays (depositor defined):AID504326, AID504355, AID504692, AID504904, AID504905]; assay type: functional
Chain of Delta-type opioid receptor (P41143 whole entry): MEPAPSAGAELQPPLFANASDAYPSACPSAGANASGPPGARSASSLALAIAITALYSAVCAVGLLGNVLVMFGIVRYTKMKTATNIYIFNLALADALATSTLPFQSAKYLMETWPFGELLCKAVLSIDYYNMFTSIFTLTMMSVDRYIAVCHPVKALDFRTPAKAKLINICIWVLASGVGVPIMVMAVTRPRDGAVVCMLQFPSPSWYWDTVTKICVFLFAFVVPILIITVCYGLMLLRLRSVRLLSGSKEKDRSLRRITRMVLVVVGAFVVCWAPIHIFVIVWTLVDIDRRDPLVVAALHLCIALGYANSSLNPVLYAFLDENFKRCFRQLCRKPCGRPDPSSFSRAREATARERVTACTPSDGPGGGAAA

Mu-type opioid receptor = Mu-type opioid receptor (Homo sapiens, UniProt P35372); experiment: Counterscreen for agonists of heterodimerization of the mu 1 (OPRM1) and delta 1 (OPRD1) opioid receptors: Luminescence-based cell-based high throughput dose response assay to identify agonists of OPRM1 homodimerization.; assay type: functional;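 further: U2OS cells expressing OPRM1 and beta-arrestin as split beta-galactosidase partners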
Chain of Mu-type opioid receptor (P35372 whole entry): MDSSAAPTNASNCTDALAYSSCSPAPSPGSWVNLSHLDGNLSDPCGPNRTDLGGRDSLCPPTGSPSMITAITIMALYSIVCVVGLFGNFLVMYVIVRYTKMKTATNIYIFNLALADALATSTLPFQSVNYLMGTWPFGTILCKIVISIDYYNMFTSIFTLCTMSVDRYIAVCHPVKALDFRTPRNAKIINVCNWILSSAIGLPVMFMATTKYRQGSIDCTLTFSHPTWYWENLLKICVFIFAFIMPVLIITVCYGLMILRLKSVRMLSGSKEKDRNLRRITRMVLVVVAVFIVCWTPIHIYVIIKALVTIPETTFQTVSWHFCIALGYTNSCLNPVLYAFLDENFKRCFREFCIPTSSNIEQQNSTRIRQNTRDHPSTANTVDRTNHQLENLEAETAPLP

[11] = biological target: Dual specificity protein kinase CLK4 (Homo sapiens, UniProt Q9HAZ1); assay type: functional
[12] = biological target: Cell division cycle 7-related protein kinase (Homo sapiens, UniProt O00311); assay type: functional;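 further: value obtained from a kinome-wide kinase panel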
Chain of Cell division cycle 7-related protein kinase (O00311 whole entry): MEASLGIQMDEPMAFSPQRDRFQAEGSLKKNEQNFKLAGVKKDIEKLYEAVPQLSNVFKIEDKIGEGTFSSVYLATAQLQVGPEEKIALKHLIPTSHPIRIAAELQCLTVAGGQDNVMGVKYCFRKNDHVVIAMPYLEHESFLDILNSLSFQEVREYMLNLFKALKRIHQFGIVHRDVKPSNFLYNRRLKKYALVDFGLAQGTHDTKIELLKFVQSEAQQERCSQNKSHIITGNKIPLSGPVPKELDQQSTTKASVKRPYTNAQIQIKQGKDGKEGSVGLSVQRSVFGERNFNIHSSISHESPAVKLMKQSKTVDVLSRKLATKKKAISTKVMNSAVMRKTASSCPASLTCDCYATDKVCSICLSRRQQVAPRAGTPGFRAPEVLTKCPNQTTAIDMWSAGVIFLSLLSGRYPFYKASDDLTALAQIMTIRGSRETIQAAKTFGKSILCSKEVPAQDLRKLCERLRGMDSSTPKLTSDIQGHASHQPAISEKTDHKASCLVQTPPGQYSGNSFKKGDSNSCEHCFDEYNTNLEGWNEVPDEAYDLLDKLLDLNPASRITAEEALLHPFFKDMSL

[13] = biological target: MAP kinase-interacting serine/threonine-protein kinase 2 (Homo sapiens, UniProt Q9HBH9); assay type: functional
Chain of MAP kinase-interacting serine/threonine-protein kinase 2 (Q9HBH9 whole entry): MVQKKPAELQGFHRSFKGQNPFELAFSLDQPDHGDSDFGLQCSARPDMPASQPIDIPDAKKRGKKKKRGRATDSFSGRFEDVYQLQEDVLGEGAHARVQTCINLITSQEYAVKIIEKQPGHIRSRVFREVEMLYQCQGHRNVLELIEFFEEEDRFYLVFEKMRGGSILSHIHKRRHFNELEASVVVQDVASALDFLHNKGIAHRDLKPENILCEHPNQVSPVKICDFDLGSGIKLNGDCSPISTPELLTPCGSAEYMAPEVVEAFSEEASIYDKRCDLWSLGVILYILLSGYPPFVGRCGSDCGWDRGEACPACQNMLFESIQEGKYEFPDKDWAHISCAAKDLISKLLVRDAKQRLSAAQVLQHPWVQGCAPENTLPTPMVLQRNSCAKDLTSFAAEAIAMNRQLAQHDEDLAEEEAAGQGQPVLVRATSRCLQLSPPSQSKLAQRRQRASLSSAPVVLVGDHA

[14] = biological target: Glycogen synthase kinase-3 beta (Homo sapiens, UniProt P49841); assay type: functional;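 further: value comes from a broad kinome profiling panel, with GSK3B as the panel member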
Chain of Glycogen synthase kinase-3 beta (P49841 whole entry): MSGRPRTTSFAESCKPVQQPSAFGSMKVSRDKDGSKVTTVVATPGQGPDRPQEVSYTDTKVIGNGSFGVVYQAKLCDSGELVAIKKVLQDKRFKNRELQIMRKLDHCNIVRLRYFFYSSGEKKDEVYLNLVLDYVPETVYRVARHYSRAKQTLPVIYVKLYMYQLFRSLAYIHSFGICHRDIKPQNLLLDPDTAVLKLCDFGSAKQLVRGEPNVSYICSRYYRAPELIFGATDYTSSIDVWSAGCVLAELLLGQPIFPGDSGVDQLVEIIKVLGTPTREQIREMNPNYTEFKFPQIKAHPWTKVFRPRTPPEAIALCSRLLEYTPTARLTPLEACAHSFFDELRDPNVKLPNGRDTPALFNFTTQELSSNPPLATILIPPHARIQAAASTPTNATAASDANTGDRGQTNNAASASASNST

[15] = biological target: T3, Interleukin-1 receptor-associated kinase 4 (Homo sapiens, UniProt Q9NWZ3); assay type: functional
T3 sequence (Q9NWZ3 whole entry): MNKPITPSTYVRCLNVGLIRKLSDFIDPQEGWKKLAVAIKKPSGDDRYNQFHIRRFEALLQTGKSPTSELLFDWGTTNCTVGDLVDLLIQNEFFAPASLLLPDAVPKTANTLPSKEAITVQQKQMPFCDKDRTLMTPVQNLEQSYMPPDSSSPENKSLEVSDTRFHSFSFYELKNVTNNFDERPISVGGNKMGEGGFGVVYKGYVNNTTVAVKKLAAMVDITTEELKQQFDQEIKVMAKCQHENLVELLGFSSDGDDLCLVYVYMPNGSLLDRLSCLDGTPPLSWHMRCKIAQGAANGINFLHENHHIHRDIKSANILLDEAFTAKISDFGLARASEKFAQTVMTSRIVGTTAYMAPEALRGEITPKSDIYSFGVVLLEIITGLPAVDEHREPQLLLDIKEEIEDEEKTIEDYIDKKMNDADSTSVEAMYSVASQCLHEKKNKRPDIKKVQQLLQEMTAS

[16] = biological target: Serine/threonine-protein kinase pim-1 (Homo sapiens, UniProt P11309); assay type: functional
[17] = biological target: Mitogen-activated protein kinase kinase kinase kinase 4 (Homo sapiens, UniProt O95819); assay type: functional
Chain of Mitogen-activated protein kinase kinase kinase kinase 4 (O95819 whole entry): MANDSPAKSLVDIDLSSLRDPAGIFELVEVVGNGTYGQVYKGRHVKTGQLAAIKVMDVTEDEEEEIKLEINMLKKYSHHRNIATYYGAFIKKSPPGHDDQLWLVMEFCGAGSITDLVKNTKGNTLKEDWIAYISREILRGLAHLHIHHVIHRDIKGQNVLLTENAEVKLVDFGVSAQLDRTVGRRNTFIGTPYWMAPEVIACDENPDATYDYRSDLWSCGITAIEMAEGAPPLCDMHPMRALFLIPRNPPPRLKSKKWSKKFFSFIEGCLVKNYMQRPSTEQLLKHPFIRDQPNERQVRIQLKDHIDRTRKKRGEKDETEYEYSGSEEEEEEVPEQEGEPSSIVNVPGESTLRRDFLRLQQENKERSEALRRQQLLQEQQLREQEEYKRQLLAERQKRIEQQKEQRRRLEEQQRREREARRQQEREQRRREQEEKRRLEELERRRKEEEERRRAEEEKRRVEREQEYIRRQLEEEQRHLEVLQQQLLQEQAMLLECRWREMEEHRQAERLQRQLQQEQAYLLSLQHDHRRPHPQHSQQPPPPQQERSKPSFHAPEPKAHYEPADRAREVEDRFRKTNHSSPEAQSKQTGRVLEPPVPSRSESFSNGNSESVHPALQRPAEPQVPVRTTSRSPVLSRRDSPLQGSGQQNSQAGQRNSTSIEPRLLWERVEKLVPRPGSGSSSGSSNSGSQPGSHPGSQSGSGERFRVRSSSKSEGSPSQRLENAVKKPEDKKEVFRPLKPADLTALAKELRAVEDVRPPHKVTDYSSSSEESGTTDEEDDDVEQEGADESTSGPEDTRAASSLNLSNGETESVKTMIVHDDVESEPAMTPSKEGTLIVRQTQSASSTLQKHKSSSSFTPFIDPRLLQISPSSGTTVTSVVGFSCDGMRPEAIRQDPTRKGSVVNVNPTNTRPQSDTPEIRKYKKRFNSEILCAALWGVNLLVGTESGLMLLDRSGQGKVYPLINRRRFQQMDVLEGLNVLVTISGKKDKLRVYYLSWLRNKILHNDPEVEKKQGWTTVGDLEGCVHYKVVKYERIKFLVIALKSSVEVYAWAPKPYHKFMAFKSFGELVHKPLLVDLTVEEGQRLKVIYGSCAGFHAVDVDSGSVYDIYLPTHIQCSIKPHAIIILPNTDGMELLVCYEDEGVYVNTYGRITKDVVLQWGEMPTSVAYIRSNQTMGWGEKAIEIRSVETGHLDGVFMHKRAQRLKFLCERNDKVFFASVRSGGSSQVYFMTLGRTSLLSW

[18] = biological target: Homeodomain-interacting protein kinase 2 (Homo sapiens, UniProt Q9H2X6); assay type: functional;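 further: measured within a kinome-wide kinase profiling panel, HIPK2 being one panel member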
Chain of Homeodomain-interacting protein kinase 2 (Q9H2X6 whole entry): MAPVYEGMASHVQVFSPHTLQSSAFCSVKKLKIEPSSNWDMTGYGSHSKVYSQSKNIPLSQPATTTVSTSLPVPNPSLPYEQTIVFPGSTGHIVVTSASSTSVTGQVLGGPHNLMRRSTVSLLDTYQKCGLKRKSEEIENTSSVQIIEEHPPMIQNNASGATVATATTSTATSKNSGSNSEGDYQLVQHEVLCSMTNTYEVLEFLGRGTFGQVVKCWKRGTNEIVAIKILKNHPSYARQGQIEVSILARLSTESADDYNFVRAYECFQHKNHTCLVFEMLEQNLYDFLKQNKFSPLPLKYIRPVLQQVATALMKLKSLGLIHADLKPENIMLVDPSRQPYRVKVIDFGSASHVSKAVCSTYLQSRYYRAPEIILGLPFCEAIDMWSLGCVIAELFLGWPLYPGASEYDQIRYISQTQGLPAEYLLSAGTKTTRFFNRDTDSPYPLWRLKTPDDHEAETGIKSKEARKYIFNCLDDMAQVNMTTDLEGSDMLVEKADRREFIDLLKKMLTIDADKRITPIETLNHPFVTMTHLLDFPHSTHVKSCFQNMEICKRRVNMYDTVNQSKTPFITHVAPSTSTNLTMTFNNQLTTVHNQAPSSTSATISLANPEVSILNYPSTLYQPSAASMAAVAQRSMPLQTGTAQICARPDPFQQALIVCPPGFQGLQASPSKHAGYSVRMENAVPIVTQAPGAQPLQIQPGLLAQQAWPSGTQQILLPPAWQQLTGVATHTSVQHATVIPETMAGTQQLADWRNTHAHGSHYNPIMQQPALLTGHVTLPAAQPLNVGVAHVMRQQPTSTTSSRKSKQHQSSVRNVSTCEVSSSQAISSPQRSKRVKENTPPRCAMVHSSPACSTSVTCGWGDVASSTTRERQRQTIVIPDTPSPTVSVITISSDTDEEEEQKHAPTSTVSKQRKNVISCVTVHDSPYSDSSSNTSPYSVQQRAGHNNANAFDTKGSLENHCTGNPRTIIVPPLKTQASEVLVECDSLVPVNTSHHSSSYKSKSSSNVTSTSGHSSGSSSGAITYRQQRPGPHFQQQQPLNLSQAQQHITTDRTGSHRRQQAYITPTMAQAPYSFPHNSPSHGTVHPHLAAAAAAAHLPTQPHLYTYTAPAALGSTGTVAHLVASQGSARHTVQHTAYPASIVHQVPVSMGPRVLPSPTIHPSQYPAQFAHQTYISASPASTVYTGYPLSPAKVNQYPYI

[19] = biological target: Nuclear receptor subfamily 5 group A member 2 (Homo sapiens, UniProt O00482); assay type: functional, cell-based;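 further: HEK293T cells transfected with LRH-1 and a StAR promoter luciferase reporter; potency for inhibitors that lower LRH-1 driven reporter light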
Steroidogenic factor 1 = Steroidogenic factor 1 (Homo sapiens, UniProt Q13285); experiment: Counterscreen for inverse agonists of the liver receptor homolog-1 (LRH-1; NR5A2): Luminescence-based cell-based high throughput dose response assay to identify inverse agonists of the Steroidogenic Factor 1 Nuclear Receptor (SF1; NR5A1).; assay type: functional
[20] = StAR promoter reporter inhibition counter-screen, dose response, counter-screen for LRH-1 inverse agonist project, cell-based, luminescence, luciferase reporter (AID 651969); assay type: functional
[21] = biological target: cAMP-dependent protein kinase catalytic subunit alpha (Homo sapiens, UniProt P17612); assay type: functional
[22] = biological target: T4, Short transient receptor potential channel 4 (Mus musculus, UniProt Q9QUQ5); experiment: mouse TRPC4 channel activators, dose response, cell-based, HEK293 TRPC4/mu-opioid, Fluo-4 calcium (AID 434937); assay type: functional
T4 sequence (Q9QUQ5 whole entry): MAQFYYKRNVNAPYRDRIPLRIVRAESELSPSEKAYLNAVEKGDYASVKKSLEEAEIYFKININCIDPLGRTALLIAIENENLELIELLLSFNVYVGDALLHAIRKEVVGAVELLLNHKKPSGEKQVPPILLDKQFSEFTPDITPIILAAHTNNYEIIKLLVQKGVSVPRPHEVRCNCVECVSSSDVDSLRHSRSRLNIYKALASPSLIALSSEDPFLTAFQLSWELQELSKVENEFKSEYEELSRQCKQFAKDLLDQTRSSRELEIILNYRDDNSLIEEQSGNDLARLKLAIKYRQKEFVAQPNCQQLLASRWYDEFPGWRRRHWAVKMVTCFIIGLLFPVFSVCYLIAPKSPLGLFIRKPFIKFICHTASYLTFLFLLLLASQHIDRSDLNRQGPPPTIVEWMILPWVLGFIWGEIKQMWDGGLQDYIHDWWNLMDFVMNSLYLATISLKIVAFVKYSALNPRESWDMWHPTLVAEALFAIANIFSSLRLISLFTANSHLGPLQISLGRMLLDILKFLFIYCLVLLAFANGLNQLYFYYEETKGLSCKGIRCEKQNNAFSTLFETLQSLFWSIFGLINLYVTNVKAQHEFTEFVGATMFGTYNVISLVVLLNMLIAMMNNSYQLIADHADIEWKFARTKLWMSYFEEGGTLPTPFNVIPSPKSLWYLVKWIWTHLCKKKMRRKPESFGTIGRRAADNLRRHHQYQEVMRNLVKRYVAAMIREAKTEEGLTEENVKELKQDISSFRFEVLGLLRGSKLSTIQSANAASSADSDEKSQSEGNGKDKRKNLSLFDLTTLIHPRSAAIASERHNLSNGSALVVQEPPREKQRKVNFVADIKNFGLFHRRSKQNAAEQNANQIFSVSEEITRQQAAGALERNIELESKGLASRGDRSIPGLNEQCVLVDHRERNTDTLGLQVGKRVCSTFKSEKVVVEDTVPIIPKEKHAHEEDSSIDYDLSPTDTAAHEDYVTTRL

## CC(NS(=O)(=O)c1cccc(Cl)c1)C(=O)Nc1ccc(-c2nc3ccccc3s2)cc1 (stereo not drawn)
HeLa
  AC50: > 350 µM (inactive)

## COCc1nnc(NC(=O)Cc2ccc(Cl)cc2)s1
[1]
  IC50: > 99 µM (inactive)
[2]
  IC50: > 99 µM (inactive)

## Cc1ccc(Nc2c([N+](=O)[O-])nn(-c3ccccc3)[n+]2[O-])c(C)c1
[3]
  IC50: 155 µM (inactive)
H4
  EC50: 9.37 µM (active)

## CCOP(=S)(OCC)Oc1nc(Cl)n(C(C)C)n1
[4]
  AC50: 39.8 µM (inconclusive)

## Cc1ccc([C@@H]2CC=C(C(=O)O)[C@H](c3ccc(C(C)(C)C)cc3)N2S(=O)(=O)c2ccc(C)cc2)cc1
Genome polyprotein
  IC50: 39.8 µM (active)
Vero
  CC50: > 40 µM (active)
[5]
  IC50: 5.74 µM (active)

## CN1CCN(c2c(F)cc3c(=O)c(C(=O)O)cn4c3c2OCN4C)CC1 [MARBOFLOXACIN]
Streptococcus
  EC50: 3.07 µM (active)
Escherichia coli [6]
  AC50: 4.63 µM (active)
[7]
  EC50: 2.79 µM (active)
Escherichia coli [8]
  AC50: 1.12 µM (active)

## OC(CN1CCN(C(c2ccccc2)c2ccccc2)CC1)c1ccccc1 (stereo not drawn)
Protein skinhead-1
  IC50: > 100 µM (inactive)
[9]
  EC50: > 92.6 µM (inactive)
[10]
  EC50: > 92.6 µM (inactive)
Mu-type opioid receptor
  EC50: > 92.6 µM (inactive)

## Cc1ccccc1-c1c(-c2ccc3[nH]nc(C)c3c2)nnn1Cc1ccccc1
[11]
  Ki: 0.00794 µM (active)
[12]
  Ki: 0.00251 µM (active)
[13]
  Ki: 0.158 µM (active)
[14]
  Ki: 0.0126 µM (active)
[15]
  Ki: > 10 µM (inactive)
[16]
  Ki: 0.251 µM (active)
[17]
  Ki: 0.158 µM (active)
[18]
  Ki: 2.51 µM (active)

## CC(=O)Nc1ccc(NC(=O)COC(=O)Cc2c[nH]c3ccccc23)cc1
[19]
  IC50: 2.64 µM (active)
Steroidogenic factor 1
  IC50: 2.07 µM (active)
[20]
  IC50: 35.9 µM (inactive)

## Cc1ccc(NC(=O)c2ccccc2Cl)c(Cl)c1
HeLa
  AC50: 84.8 µM (active)

## FC(F)(F)c1ccccc1CNc1nccc(-c2c[nH]c3ncccc23)n1
[12]
  Ki: 0.00126 µM (active)
[13]
  Ki: 0.01 µM (active)
[21]
  Ki: 0.0631 µM (active)
[14]
  Ki: 0.0126 µM (active)
[15]
  Ki: 0.2 µM (active)
[16]
  Ki: 0.501 µM (active)
[17]
  Ki: 0.02 µM (active)
[18]
  Ki: 0.02 µM (active)

## CC(C)(C)c1ccc(S(=O)(=O)N2CCSC2)cc1
Escherichia coli [6]
  AC50: 31.3 µM (active)
Escherichia coli [8]
  AC50: 37.1 µM (active)

## CCOC(=O)C1(CCOC)CCN(Cc2ccccc2-c2ccco2)CC1
[22]
  EC50: 0.299 µM (active)
[9]
  EC50: > 92.5 µM (inactive)
[10]
  EC50: > 92.5 µM (inactive)
Mu-type opioid receptor
  EC50: > 92.5 µM (inactive)
